# Measured values: PMC12457078, “Inhibition of soluble epoxide hydrolase in endotoxin induced pig lung injury” (Frontiers in Pharmacology, 2025)
# Values joined by “and” are separate entries in the source; they are usually repeats but may differ in a detail not shown here. Identical values can stand only once.
# System: sEH
# Assay: oxylipin analysis, epoxide/diol ratios (target engagement)
# Assay type: in vivo, pig
# Set-up: 12,13-DiHOME / 9,10-DiHODE / 11,12-DiHETrE / 14,15-DiHETrE / 10,11-DiHDPE / 19,20-DiHDPE / 13-HODE / 5-HETE / 11-HETE / 12-HETE / 5-HEPE / 9(10)-EpOME / 12(13)-EpOME / EKODE / 11(12)-EpETE: unit not given here
# Conditions: for 9,10,13-TriHOME sample concentration / 9,12,13-TriHOME sample concentration: bad chromatography
# Description: All animals were monitored with pulse oximetry, heart rate, ECG, systemic arterial blood pressure (ABP), pulmonary arterial pressure (PAP), central venous pressure (CVP) temperature, tidal volumes, respiratory rate and end tidal carbon dioxide. At baseline, and at 3 h, 6 h and at the end of the experiment, pulmonary capillary wedge pressure (PCWP) was measured together with arterial and venous blood gas analyses, as well as cardiac output calculations. Routine chemistry, including creatinine, bilirubin, glucose, electrolytes were collected at baseline and at the end of the experiment (Vetscan VS2®, Abaxis, Griesheim, Germany). Blood samples for measurement of AEPU plasma concentrations, as well as oxylipins (i.e., EpETrEs and their DiHETrE corresponding diols as well as related compounds with other polyunsaturated fatty acid precursors), were collected at baseline, 6 h and at the end of the experiment.
# This meant nine subjects in each group to achieve 90% power of detecting a difference of this size given α = 0.05. Anticipating that not all experiments would reach completion, we used a sample size of 22. The results were analyzed using SPSS Statistics, version 24 (IBM Corp., Armonk, N.Y., United States). Normality was examined with the Shapiro-Wilk test, together with examination of histograms of data. Continuous variables were compared using Student’s t-test or Mann Whitney U test, as appropriate. Categorical variables were compared using Fischer’s exact test. Statistical significance was set at α < 0.05. Oxylipins with at least 80% of observations above limit of detection at both timepoints were included in pairwise comparisons of ratios and fold-change evaluations where observations below limit of detection (LOD) were substituted with 0.5 x LOD.
# [1] = Time (h) 0, single pigs of sEH-i group
# [2] = Time (h) 6, single pigs of sEH-i group
# [3] = animal 20, time 6, sample Schwein36
smiles,measurement,setting,value
CCOCCOCCOCCCCCNC(=O)NC12CC3CC(CC(C3)C1)C2 [sEH-i],5(6)-EpETrE sample concentration,[1],<LOD
same,"5,6-DiHETrE sample concentration",[1],<LOD
same,7(8)-EpDPE sample concentration,[1],<LOD
same,"7,8-DiHDPE sample concentration",[1],<LOD
same,8(9)-EpETE sample concentration,[1],<LOD
same,8(9)-EpETrE sample concentration,[1],<LOD
same,"8,9-DiHETE sample concentration",[1],<LOD
same,9-HETE sample concentration,[1],<LOD
same,9-oxo-ODE sample concentration,[1],<LOD
same,10(11)-EpDPE sample concentration,[1],<LOD
same,11(12)-EpETE sample concentration,[1],0.1209 pmol/mL and 0.141 pmol/mL and 0.08872 pmol/mL
same,13(14)-EpDPE sample concentration,[1],<LOD
same,14(15)-EpETE sample concentration,[1],<LOD
same,15-HEPE sample concentration,[1],<LOD
same,16(17)-EpDPE sample concentration,[1],<LOD
same,17(18)-EpETE sample concentration,[1],<LOD
same,17-HDoHE sample concentration,[1],<LOD
same,19(20)-EpDPE sample concentration,[1],<LOD
same,LTB4 sample concentration,[1],<LOD
same,PGD2 sample concentration,[1],<LOD
same,PGE2 sample concentration,[1],<LOD
same,PGF2a sample concentration,[1],<LOD
same,Resolvin D1 sample concentration,[1],<LOD
same,Resolvin D2 sample concentration,[1],<LOD
same,TXB2 sample concentration,[1],0.17 pmol/mL and 0.31 pmol/mL
same,"9,10,13-TriHOME sample concentration",[1],4.78 pmol/mL and 2.75 pmol/mL and 3.27 pmol/mL
same,"9,12,13-TriHOME sample concentration",[1],<LOD
same,5(6)-EpETrE sample concentration,[2],<LOD
same,7(8)-EpDPE sample concentration,[2],<LOD
same,"7,8-DiHDPE sample concentration",[2],<LOD
same,8(9)-EpETE sample concentration,[2],<LOD
same,8(9)-EpETrE sample concentration,[2],<LOD
same,9-HETE sample concentration,[2],<LOD
same,9-oxo-ODE sample concentration,[2],<LOD
same,10(11)-EpDPE sample concentration,[2],<LOD
same,11(12)-EpETE sample concentration,[2],0.1453 pmol/mL and 0.09993 pmol/mL and 0.1012 pmol/mL
same,13(14)-EpDPE sample concentration,[2],<LOD
same,14(15)-EpETE sample concentration,[2],<LOD
same,15-HEPE sample concentration,[2],<LOD
same,16(17)-EpDPE sample concentration,[2],<LOD
same,17(18)-EpETE sample concentration,[2],<LOD
same,19(20)-EpDPE sample concentration,[2],<LOD
same,LTB4 sample concentration,[2],<LOD
same,PGD2 sample concentration,[2],<LOD
same,PGE2 sample concentration,[2],<LOD
same,Resolvin D1 sample concentration,[2],<LOD
same,Resolvin D2 sample concentration,[2],<LOD
same,TXB2 sample concentration,[2],1.20 pmol/mL and 2.15 pmol/mL and 2.09 pmol/mL
same,"9,10,13-TriHOME sample concentration",[2],4.27 pmol/mL and 3.59 pmol/mL and 2.73 pmol/mL
same,"9,12,13-TriHOME sample concentration",[2],<LOD
same,5(6)-EpETrE,[3],<LOD
same,"5,6-DiHETrE",[3],<LOD
same,5-HEPE,[3],<LOD
same,5-HETE,[3],<LOD
same,5-oxo-ETE,[3],0.05
same,7(8)-EpDPE,[3],<LOD
same,"7,8-DiHDPE",[3],<LOD
same,8(9)-EpETE,[3],<LOD
same,8(9)-EpETrE,[3],<LOD
same,"8,9-DiHETE",[3],<LOD
same,"8,9-DiHETrE",[3],0.0443
same,8-HETE,[3],0.0319
same,9(10)-EpODE,[3],<LOD
same,9(10)-EpOME,[3],0.34
same,"9,10,13-TriHOME",[3],6.77
same,"9,10-DiHODE",[3],0.0155
same,"9,10-DiHOME",[3],0.21
same,"9,12,13-TriHOME",[3],<LOD
same,9-HETE,[3],<LOD
same,9-HODE,[3],1.17
same,9-HOTrE,[3],0.2865
same,9-oxo-ODE,[3],<LOD
same,10(11)-EpDPE,[3],<LOD
same,"10,11-DiHDPE",[3],<LOD
same,11(12)-EpETE,[3],0.0834
same,11(12)-EpETrE,[3],0.0219
same,"11,12-DiHETE",[3],0.0228
same,"11,12-DiHETrE",[3],0.45
same,11-HETE,[3],0.12
same,12(13)-EpODE,[3],<LOD
same,12(13)-EpOME,[3],0.3027
same,"12,13-DiHODE",[3],<LOD
same,"12,13-DiHOME",[3],0.26
same,12-HEPE,[3],0.0122
same,12-HETE,[3],0.06381
same,12-oxo-ETE,[3],<LOD
same,13(14)-EpDPE,[3],<LOD
same,"13,14-DiHDPE",[3],0.04
same,13-HODE,[3],4.33
same,13-HOTrE,[3],<LOD
same,13-oxo-ODE,[3],<LOD
same,14(15)-EpETE,[3],<LOD
same,14(15)-EpETrE,[3],<LOD
same,"14,15-DiHETrE",[3],0.58
same,15(16)-EpODE,[3],0.25
same,"15,16-DiHODE",[3],2.37
